Biological target: HPK1 (Homo sapiens, UniProt Q92918)
Experiment: HPK1 Biochemical Assay (ADP-Glo luminescence; low ATP 10 μM or high ATP 200 μM)
Conditions: 2 nM HPK1, 10 μM ATP; read-out: Biochemical Potency (low ATP)

HPK1, sequence (Q92918 whole entry, species assumed): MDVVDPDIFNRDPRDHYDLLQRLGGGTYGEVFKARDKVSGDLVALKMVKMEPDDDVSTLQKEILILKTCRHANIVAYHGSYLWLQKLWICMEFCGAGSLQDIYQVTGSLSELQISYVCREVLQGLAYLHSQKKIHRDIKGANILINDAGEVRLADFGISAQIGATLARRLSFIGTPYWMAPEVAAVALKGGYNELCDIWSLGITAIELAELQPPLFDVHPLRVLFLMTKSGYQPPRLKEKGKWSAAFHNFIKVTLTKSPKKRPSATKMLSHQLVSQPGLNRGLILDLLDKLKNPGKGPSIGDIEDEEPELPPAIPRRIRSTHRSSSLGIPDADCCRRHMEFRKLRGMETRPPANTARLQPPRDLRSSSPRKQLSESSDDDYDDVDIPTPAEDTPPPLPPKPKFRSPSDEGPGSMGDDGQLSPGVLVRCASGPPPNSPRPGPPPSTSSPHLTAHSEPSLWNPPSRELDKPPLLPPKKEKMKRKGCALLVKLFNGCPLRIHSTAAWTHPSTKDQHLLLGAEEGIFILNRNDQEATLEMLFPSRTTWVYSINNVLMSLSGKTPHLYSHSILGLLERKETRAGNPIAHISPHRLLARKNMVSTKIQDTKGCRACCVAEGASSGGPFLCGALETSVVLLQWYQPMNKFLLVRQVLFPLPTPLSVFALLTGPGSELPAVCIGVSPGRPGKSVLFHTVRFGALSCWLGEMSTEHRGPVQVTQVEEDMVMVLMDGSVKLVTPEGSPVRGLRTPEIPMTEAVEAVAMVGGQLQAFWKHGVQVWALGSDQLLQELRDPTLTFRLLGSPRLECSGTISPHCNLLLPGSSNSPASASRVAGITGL

IC50	SMILES
< 0.1 µM	Cc1cccnc1-c1nc2cc(Nc3ccc(C)c(N4CCC[C@H]4CN)n3)ncc2s1 [Example 72, 6-[(2S)-2-(Aminomethyl)pyrrolidin-1-yl]-5-methyl-N-[2-(3-methylpyridin-2-yl)-[1,3]thiazolo[5,4-c]pyridin-6-yl]pyridin-2-amine]
< 0.1 µM	Cc1cccnc1-c1nc2cc(Nc3cc(C4CCOCC4)nc(N4C[C@@H]5C[C@H]4CN5)n3)ncc2s1 [Example 250, 2-[(1S,4S)-2,5-Diazabicyclo[2.2.1]heptan-2-yl]-N-[2-(3-methylpyridin-2-yl)-[1,3]thiazolo[5,4-c]pyridin-6-yl]-6-(oxan-4-yl)pyrimidin-4-amine]
< 0.1 µM	c1cc(C2CCOCC2)c(CN2CCCC2)nc1Nc1cc2nc(N3CCCCC3)sc2cn1 [Example 232, 5-(Oxan-4-yl)-N-[2-(piperidin-1-yl)-[1,3]thiazolo[5,4-c]pyridin-6-yl]-6-[(pyrrolidin-1-yl)methyl]pyridin-2-amine]
< 0.1 µM	CN(C)Cc1nc(Nc2cc3nc(NC(=O)c4c(F)cccc4F)sc3cn2)ccc1N1CCOCC1 [Example 282, N-[6-({6-[(Dimethylamino)methyl]-5-(morpholin-4-yl)pyridin-2-yl}amino)-[1,3]thiazolo[5,4-c]pyridin-2-yl]-2,6-difluorobenzamide]
< 0.1 µM	c1n[nH]cc1-c1nc2cc(Nc3ccc(N4CCOCC4)c(CN4CCCC4)n3)ncc2s1 [Example 25, 5-(Morpholin-4-yl)-N-[2-(1H-pyrazol-4-yl)-[1,3]thiazolo[5,4-c]pyridin-6-yl]-6-[(pyrrolidin-1-yl)methyl]pyridin-2-amine]
1 to 5 µM	Cc1cccnc1-c1nc2cc(Nc3ccc(N4CCC(F)(F)C4)c(N4CCCC4)n3)ncc2s1 [Example 280, 5-(3,3-Difluoropyrrolidin-1-yl)-N-[2-(3-methylpyridin-2-yl)-[1,3]thiazolo[5,4-c]pyridin-6-yl]-6-(pyrrolidin-1-yl)pyridin-2-amine]
0.1 to 1 µM	Cc1ccc(N2C[C@@H]3C[C@H]2CN3C)nc1Nc1cc2nc(-c3ncccc3C)sc2cn1 [Example 284, 3-methyl-6-[(1S,4S)-5-methyl-2,5-diazabicyclo[2.2.1]heptan-2-yl]-N-[2-(3-methylpyridin-2-yl)-[1,3]thiazolo[5,4-c]pyridin-6-yl]pyridin-2-amine]
< 0.1 µM	Cc1cccnc1-c1nc2cc(Nc3cccc(N4CCN5CCC[C@H]5C4)n3)ncc2s1 [Example 113, 6-[(8aS)—Octahydropyrrolo[1,2-a]pyrazin-2-yl]-N-[2-(3-methylpyridin-2-yl)-[1,3]thiazolo[5,4-c]pyridin-6-yl]pyridin-2-amine]
< 0.1 µM	c1cc(C2CCOCC2)c(CN2CCCC2)nc1Nc1cc2nc(N3C4COCC3C4)sc2cn1 [Example 237, N-(2-{3-Oxa-6-azabicyclo[3.1.1]heptan-6-yl}-[1,3]thiazolo[5,4-c]pyridin-6-yl)-5-(oxan-4-yl)-6-[(pyrrolidin-1-yl)methyl]pyridin-2-amine]
1 to 5 µM	Cc1cccnc1-c1nc2cc(Nc3cccc(N4CCN(C)C[C@@H]4C)n3)ncc2s1 [Example 95, 6-[(2S)-2,4-Dimethylpiperazin-1-yl]-N-[2-(3-methylpyridin-2-yl)-[1,3]thiazolo[5,4-c]pyridin-6-yl]pyridin-2-amine]
< 0.1 µM	Cc1cccnc1-c1nc2cc(Nc3ccnc(N4C[C@@H]5C[C@H]4CN5C)n3)ncc2s1 [Example 158, 2-[(1S,4S)-5-Methyl-2,5-diazabicyclo[2.2.1]heptan-2-yl]-N-[2-(3-methylpyridin-2-yl)-[1,3]thiazolo[5,4-c]pyridin-6-yl]pyrimidin-4-amine]
< 0.1 µM	Cc1cccnc1-c1nc2cc(Nc3cccc(N4C[C@@H]5CCN(C)[C@@H]5C4)n3)ncc2s1 [Example 111, 6-[(3aS,6aS)-1-Methyl-octahydropyrrolo[3,4-b]pyrrol-5-yl]-N-[2-(3-methylpyridin-2-yl)-[1,3]thiazolo[5,4-c]pyridin-6-yl]pyridin-2-amine]
< 0.1 µM	Cc1ccc(Nc2cc3nc(-c4ncccc4C)sc3cn2)nc1CN1CCC[C@H]1CO [Example 48, [(2S)-1-[(3-Methyl-6-{[2-(3-methylpyridin-2-yl)-[1,3]thiazolo[5,4-c]pyridin-6-yl]amino}pyridin-2-yl)methyl]pyrrolidin-2-yl]methanol]
0.1 to 1 µM	CN1C[C@@H]2C[C@H]1CN2c1ccnc(Nc2cc3nc(-c4cccc(C(=O)N5CCCC5)c4)sc3cn2)n1 [Example 245, 4-[(1S,4S)-5-Methyl-2,5-diazabicyclo[2.2.1]heptan-2-yl]-N-{2-[3-(pyrrolidine-1-carbonyl)phenyl]-[1,3]thiazolo[5,4-c]pyridin-6-yl}pyrimidin-2-amine]
< 0.1 µM	Cc1cccnc1-c1nc2cc(Nc3ccc(F)c(CN4CCCC4)n3)ncc2s1 [Example 61, 5-Fluoro-N-[2-(3-methylpyridin-2-yl)-[1,3]thiazolo[5,4-c]pyridin-6-yl]-6-[(pyrrolidin-1-yl)methyl]pyridin-2-amine]
0.1 to 1 µM	C[C@@H]1CCC(=O)N1c1nc2cc(Nc3ccc(C4CCOCC4)c(CN4CCCC4)n3)ncc2s1 [Example 207, (5R)-5-Methyl-1-(6-{[5-(oxan-4-yl)-6-[(pyrrolidin-1-yl)methyl]pyridin-2-yl]amino}-[1,3]thiazolo[5,4-c]pyridin-2-yl)pyrrolidin-2-one]
< 0.1 µM	Cc1cccnc1-c1nc2cc(Nc3cnc(C)c(N4C[C@@H]5C[C@H]4CN5C)n3)ncc2s1 [Example 154, 5-Methyl-6-[(1S,4S)-5-methyl-2,5-diazabicyclo[2.2.1]heptan-2-yl]-N-[2-(3-methylpyridin-2-yl)-[1,3]thiazolo[5,4-c]pyridin-6-yl]pyrazin-2-amine]
< 0.1 µM	Cc1cccnc1-c1nc2cc(Nc3ccc(C4CCOCC4)c(N4C[C@@H]5C[C@H]4CN5C)n3)ncc2s1 [Example 247, 6-[(1S,4S)-5-Methyl-2,5-diazabicyclo[2.2.1]heptan-2-yl]-N-[2-(3-methylpyridin-2-yl)-[1,3]thiazolo[5,4-c]pyridin-6-yl]-5-(oxan-4-yl)pyridin-2-amine]
< 0.1 µM	Cc1cc(Nc2cc3nc(-c4cccnc4C)sc3cn2)nc(O[C@H]2CCNC2)c1 [Example 179, 4-Methyl-N-[2-(2-methylpyridin-3-yl)-[1,3]thiazolo[5,4-c]pyridin-6-yl]-6-[(3S)-pyrrolidin-3-yloxy]pyridin-2-amine]
< 0.1 µM	CN1C[C@@H]2C[C@H]1CN2c1nccc(Nc2cc3nc(-c4cccc(C(C)(C)O)c4)sc3cn2)n1 [Example 122, 2-{3-[6-({2-[(1S,4S)-5-Methyl-2,5-diazabicyclo[2.2.1]heptan-2-yl]pyrimidin-4-yl}amino)-[1,3]thiazolo[5,4-c]pyridin-2-yl]phenyl}propan-2-ol]
< 0.1 µM	Cc1cc(Nc2cc3nc(-c4cc(C#N)ccc4C)sc3cn2)nc(O[C@H]2CCNC2)c1 [Example 176, 4-Methyl-3-(6-{[4-methyl-6-((3S)-pyrrolidin-3-yloxy)pyridin-2-yl]amino}-[1,3]thiazolo[5,4-c]pyridin-2-yl)benzonitrile]
< 0.1 µM	Cc1cc(Nc2cc3nc(-c4cccc(C)n4)sc3cn2)nc(O[C@H]2CCNC2)c1 [Example 163, 4-Methyl-N-[2-(6-methylpyridin-2-yl)-[1,3]thiazolo[5,4-c]pyridin-6-yl]-6-[(3S)-pyrrolidin-3-yloxy]pyridin-2-amine]
0.1 to 1 µM	Cc1cc(-c2nc3cc(Nc4ccc(N5CCOCC5)c(CN5CCCC5)c4)ncc3s2)ccn1 [Example 2, 2-(2-Methylpyridin-4-yl)-N-[4-(morpholin-4-yl)-3-[(pyrrolidin-1-yl)methyl]phenyl]-[1,3]thiazolo[5,4-c]pyridin-6-amine]
< 0.1 µM	CN1C[C@@H]2C[C@H]1CN2c1nccc(Nc2cc3nc(-c4ccnc5c4cnn5C)sc3cn2)n1 [Example 294, N-(2-{1-methyl-1H-pyrazolo[3,4-b]pyridin-4-yl}-[1,3]thiazolo[5,4-c]pyridin-6-yl)-2-[(1 S,4S)-5-methyl-2,5-diazabicyclo[2.2.1]heptan-2-yl]pyrimidin-4-amine]
0.1 to 1 µM	Cc1cccnc1-c1nc2cc(Nc3ccc(C(F)(F)F)c(CN4CCCC4)n3)ncc2s1 [Example 59, N-[2-(3-Methylpyridin-2-yl)-[1,3]thiazolo[5,4-c]pyridin-6-yl]-6-[(pyrrolidin-1-yl)methyl]-5-(trifluoromethyl)pyridin-2-amine]
< 0.1 µM	Cc1cc(Nc2cc3nc(C4CCOCC4)sc3cn2)nc(O[C@H]2CCNC2)c1 [Example 184, 4-Methyl-N-[2-(oxan-4-yl)-[1,3]thiazolo[5,4-c]pyridin-6-yl]-6-[(3S)-pyrrolidin-3-yloxy]pyridin-2-amine]

Same assay, conditions: Biochemical Potency (low ATP), 2 nM HPK1, 10 μM ATP

SMILES	IC50
Cc1ccc(Nc2cc3nc(-c4ccncc4)sc3cn2)nc1CN1CCCC1 [Example 35, 5-Methyl-N-[2-(pyridin-4-yl)-[1,3]thiazolo[5,4-c]pyridin-6-yl]-6-[(pyrrolidin-1-yl)methyl]pyridin-2-amine]	< 0.1 µM

Same assay, conditions: HPK1 ADP-Glo assay, low ATP (10 μM ATP, 2 nM HPK1); read-out: Biochemical Potency (low ATP)

IC50	SMILES
< 0.1 µM	CN1C[C@@H]2C[C@H]1CN2c1cncc(Nc2cc3nc(-c4ncco4)sc3cn2)n1 [Example 421]
< 0.1 µM	CN1C[C@@H]2C[C@H]1CN2c1nccc(Nc2cc3nc(-c4ccnc(N5CC[C@H](F)C5)c4)sc3cn2)n1 [Example 463]
< 0.1 µM	Cc1cccnc1-c1nc2cc(Nc3ccc4cccc(C(C)(C)N)c4n3)ncc2s1 [Example 306, 6-[8-(1-amino-1-methylethyl)-2-quinolylamino]-2-(3-methyl-2-pyridyl)-3-thia-1,5-diazaindene]
0.1 to 1 µM	Cc1cccnc1-c1nc2cc(Nc3cc(C4CCNC4)nc(N4CCC(F)(F)C4)n3)ncc2s1 (centres unmarked) [Example 319, [2-(3,3-difluoro-1-pyrrolidinyl)-6-(3-pyrrolidinyl)-4-pyrimidinyl][2-(3-methyl-2-pyridyl)-3-thia-1,5-diaza-6-indenyl]amine]
< 0.1 µM	CN1C[C@@H]2C[C@H]1CN2c1nccc(Nc2cc3nc(-c4ccnc(N5CC[C@H](O)C5)c4)sc3cn2)n1 [Example 462]

From patent publication US12649751B2 (Arcus Biosciences, Inc., priority 2022, dated 2026)
